One data set can be described thus: aqueous solubility. Format: physicochemical.
Data set [1] can be described thus: stability (solid and aqueous solution). Format: physicochemical.
Another data set is described as follows: oral absorption profile. Type of data set: in vivo. The following applies: compared with the free base.
The nature of data set [2]: hygroscopicity / solvate formation on purification. Type of data set: physicochemical.

Regarding `COc1cc(N(C)CCOc2ccc(CC3SC(=O)NC3=O)cc2)ncn1.[Na]` (stereo not drawn) [Sodium Salt, sodium salt of 5-(4-{2-[(6-methoxy-pyrimydin-4-yl)-methyl-amino]-ethoxy}-benzyl)-thiazolidin-2,4-dione], the aqueous solubility result in “aqueous solubility” (water) is “higher than 1 mg/ml”. Moreover, the stability entry in data set [1] is recorded as “good stability”. In addition, the oral absorption profile result in “oral absorption profile” was “better oral absorption profile than the free base”. Besides, the “hygroscopicity or formation of solvates” value in data set [2] is given as “without problems of hygroscopicity or formation of solvates”.
With `COc1cc(N(C)CCOc2ccc(CC3SC(=O)NC3=O)cc2)ncn1` (stereo not drawn) [Compound I, 5-(4-{2-[(6-methoxypyrimydin-4-yl)-methyl-amino]-ethoxyl}-benzyl)-thiazolidin-2,4-dione], in “aqueous solubility” (aqueous), the “solubility (in words)” value is “problems of stability and solubility”. Moreover, the stability entry in data set [1] was “problems of stability”.
